Experiment [1] deals with T1, Survival of motor neuron-related-splicing factor 30 (Homo sapiens) (UniProt O75940).
T1 sequence (whole entry): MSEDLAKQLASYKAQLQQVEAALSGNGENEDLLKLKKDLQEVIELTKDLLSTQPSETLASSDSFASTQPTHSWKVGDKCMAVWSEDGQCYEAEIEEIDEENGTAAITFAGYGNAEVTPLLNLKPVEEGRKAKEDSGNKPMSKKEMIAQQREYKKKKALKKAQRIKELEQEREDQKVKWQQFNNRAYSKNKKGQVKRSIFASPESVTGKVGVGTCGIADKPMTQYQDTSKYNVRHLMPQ
The experiment is described as follows: Inhibition of SMNDC1 (unknown origin) assessed as fold increase at 40 uM.

Experiment [2] in a line: Binding affinity to SARS-Cov-2 RNA pseudoknot assessed as dissociation constant. Also noted: species or system Severe acute respiratory syndrome coronavirus 2.
Experiment [3] concerns the target T2, Non-structural protein 4b (Hepacivirus hominis, UniProt F5B4I0).
T2 sequence (F5B4I0 whole entry): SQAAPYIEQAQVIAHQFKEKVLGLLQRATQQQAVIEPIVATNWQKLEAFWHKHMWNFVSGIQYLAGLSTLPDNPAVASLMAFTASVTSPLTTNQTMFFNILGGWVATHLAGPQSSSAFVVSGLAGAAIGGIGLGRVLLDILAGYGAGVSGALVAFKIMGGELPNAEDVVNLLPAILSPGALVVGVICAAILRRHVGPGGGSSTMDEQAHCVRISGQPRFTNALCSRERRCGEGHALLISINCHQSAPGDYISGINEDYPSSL
The experiment in a line: Binding affinity to Hepatitis C virus genotype 1 NS4B assessed as inhibition constant.

Experiment [4] addresses preQ1 riboswitch. The experiment in a line: Binding affinity to Bacillus subtilis 5-Cy5-PreQ1-RS RNA assessed as dissociation constant. It counts as nucleic-acid assay.
For experiment [5], the target named is preQ1 riboswitch. The experiment in a line: Binding affinity to Thermoanaerobacter tengcongensis 5-Cy5-PreQ1-RS RNA assessed as dissociation constant. The class given is nucleic-acid assay, Caldanaerobacter subterraneus subsp. tengcongensis.
Experiment [6] has as its system Quadruplex DNA. The experiment in a line: Binding affinity to TERRA G-Quadruplex (unknown origin) assessed as melting temperature. It counts as nucleic-acid assay.
In experiment [7] the target is Quadruplex DNA. The experiment in a line: Binding affinity to TERRA G-Quadruplex (unknown origin) assessed as dissociation constant. It counts as nucleic-acid assay.

Consider `O=C(c1cnc(C(=O)c2c[nH]c3cc(O)ccc23)[nH]1)c1c[nH]c2ccccc12`, for which, in experiment [1], the fold change (FC) was 1.5.

Take `CCOC(=O)c1ccccc1NC(=O)N1CCCN(Cc2csc(C)n2)CC1`: in experiment [2], the equilibrium dissociation constant (Kd) turned out to be 210 µM. With `CN(C)CCCNc1nc2ccc(N)cc2o1`, in experiment [3], the Ki was 6 µM. Regarding `NCCOc1ccc2oc3ccccc3c2c1`, the values for the Kd on preQ1 riboswitch [4] and at preQ1 riboswitch [5] were 0.534 µM and 0.457 µM, respectively. As to `O=c1c2c(-c3ccco3)csc2nc2n1Cc1nc3scc(-c4ccco4)c3c(=O)n1C2`, in the experiment with Quadruplex DNA [6], the ΔTm is greater than 5 °C. For the same compound, the Kd on Quadruplex DNA [7] was 8.8 µM.

Values taken from ChEMBL document CHEMBL5528087, “RNA-Small-Molecule Interaction: Challenging the "Undruggable" Tag” (J Med Chem, 2024).
